Reference: ChEMBL document CHEMBL1201862, “PubChem BioAssay data set” (2004)
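Test compounds were applied to cells in 96-well plates for 48 hours at 5 doses. GI50: concentration for 50% inhibition of growth.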 Activity calls are given as the source filed them. No stated cut-off is given here; in the data, active = GI50 up to about 1.1 µM and inactive = higher.

Assays:
Test in all cases: NCI tumour cell line growth inhibition, 48 h
[1] = tested on: CAKI-1
[2] = tested on: HCT-15
[3] = tested on: SF-539
[4] = tested on: A549
[5] = tested on: KM12
[6] = tested on: HCT-116
[7] = tested on: MDA-N
[8] = tested on: NCI-H460
[9] = tested on: 786-0
[10] = tested on: HL-60
[11] = tested on: OVCAR-5
[12] = tested on: UACC-257
[13] = tested on: OVCAR-3
[14] = tested on: BT-549
[15] = tested on: MDA-MB-231
[16] = tested on: SK-OV-3
[17] = tested on: HOP-62
[18] = tested on: RXF 393
[19] = tested on: A498
[20] = tested on: NCI/ADR-RES
[21] = tested on: SW-620
[22] = tested on: U-251
[23] = tested on: K562
[24] = tested on: UACC-62
[25] = tested on: DU-145
[26] = tested on: MOLT-4
[27] = tested on: SNB-19
[28] = tested on: ACHN
[29] = tested on: NCI-H23
[30] = tested on: MCF7
[31] = tested on: LOX IMVI
[32] = tested on: PC-3
[33] = tested on: SR
[34] = tested on: SN12C
[35] = tested on: SF-295
[36] = tested on: SK-MEL-2
[37] = tested on: M14
[38] = tested on: SF-268
[39] = tested on: COLO 205
[40] = tested on: UO-31
[41] = tested on: Hs-578T
[42] = tested on: SK-MEL-5
[43] = tested on: T47D
[44] = tested on: OVCAR-8
[45] = tested on: IGROV-1
[46] = tested on: MDA-MB-435
[47] = tested on: HT-29
[48] = tested on: NCI-H522
[49] = tested on: SNB-75
[50] = tested on: EKVX
[51] = tested on: SK-MEL-28
[52] = tested on: NCI-H226
[53] = tested on: OVCAR-4
[54] = tested on: HOP-92
[55] = tested on: RPMI-8226
[56] = tested on: Malme-3M
[57] = tested on: HCC 2998
[58] = tested on: TK-10
[59] = tested on: CCRF-CEM

Measured: GI50

c1ccc(C2C3=C(CCCC3)Nc3nnnn32)cc1 (configuration not stated)
> 100 µM: [2]
inactive: [1] > 100 µM | [3] > 100 µM | [4] 64 µM | [5] > 100 µM | [6] > 100 µM | [7] 98.4 µM | [8] 12.9 µM | [9] > 100 µM | [10] 33.1 µM | [11] > 100 µM | [12] > 100 µM | [13] 37.8 µM | [14] 34.8 µM | [15] > 100 µM | [16] > 100 µM | [17] > 100 µM | [19] 19.2 µM | [20] 98.9 µM | [21] > 100 µM | [22] > 100 µM | [23] 32.4 µM | [24] 56.2 µM | [25] > 100 µM | [26] 53 µM | [27] > 100 µM | [28] 82.4 µM | [29] > 100 µM | [30] 13.8 µM | [31] > 100 µM | [32] 68.1 µM | [33] > 100 µM | [34] > 100 µM | [35] 57.4 µM | [36] 34.4 µM | [37] > 100 µM | [38] 12.5 µM | [39] > 100 µM | [40] > 100 µM | [41] 64 µM | [42] 48.9 µM | [43] 25.4 µM | [44] > 100 µM | [45] > 100 µM | [46] 72.6 µM
active: [18] 0.226 µM

c1ccc2[nH]c(C3CCCCO3)nc2c1 (configuration not stated)
inactive: [1] > 100 µM | [3] > 100 µM | [4] > 100 µM | [47] > 100 µM | [5] 50.4 µM | [6] > 100 µM | [48] > 100 µM | [7] > 100 µM | [49] > 100 µM | [9] > 100 µM | [50] > 100 µM | [10] > 100 µM | [11] > 100 µM | [51] > 100 µM | [12] > 100 µM | [13] > 100 µM | [14] > 100 µM | [52] 6.41 µM | [15] > 100 µM | [16] > 100 µM | [17] > 100 µM | [18] > 100 µM | [53] > 100 µM | [20] > 100 µM | [21] > 100 µM | [54] > 100 µM | [22] > 100 µM | [23] > 100 µM | [55] > 100 µM | [24] > 100 µM | [25] > 100 µM | [26] > 100 µM | [27] > 100 µM | [28] > 100 µM | [29] > 100 µM | [30] > 100 µM | [31] > 100 µM | [56] > 100 µM | [32] > 100 µM | [33] > 100 µM | [57] > 100 µM | [34] > 100 µM | [35] > 100 µM | [36] > 100 µM | [37] > 100 µM | [58] > 100 µM | [38] > 100 µM | [39] > 100 µM | [40] > 100 µM | [41] > 100 µM | [42] > 100 µM | [43] > 100 µM | [44] > 100 µM | [59] > 100 µM | [45] > 100 µM | [46] > 100 µM
> 100 µM: [2]

CN(C)CCSc1cc(-c2ccccc2)c2ccccc2n1
inactive: [1] 16.3 µM | [3] 9.18 µM | [4] 13.6 µM | [47] 5.78 µM | [5] 14.3 µM | [6] 7.43 µM | [48] 10.7 µM | [7] 10.2 µM | [49] 4.04 µM | [9] 10.8 µM | [50] 15.7 µM | [10] 3.69 µM | [11] 13.4 µM | [51] 4.7 µM | [12] 10.4 µM | [14] 12.3 µM | [52] 16.6 µM | [15] 11.3 µM | [16] 3.91 µM | [17] 10.3 µM | [18] 3.14 µM | [19] 16 µM | [20] 14.9 µM | [21] 6.14 µM | [22] 10.6 µM | [23] 2.09 µM | [55] 17.3 µM | [24] 2.59 µM | [25] 15.4 µM | [26] 6.38 µM | [27] 13.6 µM | [28] 13.5 µM | [29] 10 µM | [30] 13.2 µM | [31] 10.4 µM | [56] 10.8 µM | [32] 12.2 µM | [33] 13.6 µM | [34] 15 µM | [35] 12.6 µM | [36] 14.2 µM | [37] 2.69 µM | [58] 7.93 µM | [38] 11.8 µM | [39] 1.97 µM | [40] 10.6 µM | [41] 10.3 µM | [42] 1.63 µM | [43] 15.4 µM | [44] 19.1 µM | [59] 10.5 µM | [45] 12.9 µM | [46] 10.1 µM
3.82 µM: [2]
